# Test results from patent publication US20240100170A1, “CYCLIC-AMP RESPONSE ELEMENT BINDING PROTEIN (CBP) AND/OR ADENOVIRAL E1A BINDING PROTEIN OF 300 KDA (P300) DEGRADATION COMPOUNDS AND METHODS OF USE” (CULLGEN (SHANGHAI), INC., priority 2020, published 2024).
# Test system: LNCaP prostate cancer cell
# Assay: LNCaP cell viability (CellTiter-Glo)
# Type: cell-based
# Conditions: Homo sapiens, 72 h; LNCaP cell viability, 3 days, CellTiter-Glo; Table 4
# Experimental: LNCaP cells seeded in 96-well plates were treated with 10 μM GNE-781 or selected bivalent compounds, i.e. P-001, P-002, and P-019, following a 12-point 3-fold serial dilution. Three days after treatment, cell viability was determined using the CellTiter-Glo kit (Promega) following manufacturer's instructions. Cell viability was normalized to the mean values of 3 replicates of untreated cells. Dose-dependent response was analyzed following the least-squares non-linear regression method using the GraphPad Prism 5.0 software.
# LNCaP (clone FGC), 22RV1 and other cells were cultured at 37° C. with 5% CO 2 in RPMI 1640 Medium supplemented with 10% fetal bovine serum. Cells were authenticated using the short tandem repeat (STR) assays. Mycoplasma test results were negative.
# Cells were seeded at a density of 5000 cells per well in 96-well assay plates and treated with test compounds following a 12-point 3-fold serial dilution. Three days later, cell viability was determined using the CellTiter-Glo assay kit according to the manufactureR's instructions. The dose-response curves were determined and IC50 values were calculated using the GraphPad Prism software following a nonlinear regression (least squares fit) method.
row,IC50,Compound
1,> 500 nM,"CC(=O)N1CCc2c(c(N3CCCc4cc(-c5cnn(C)c5)c(C(F)F)cc43)nn2C2CCN(C(=O)CCN3CCC(COc4ccc5c(c4)n(C)c(=O)n5C4CCC(=O)NC4=O)CC3)CC2)C1 (stereo not shown) [P-203, 3-(5-((1-(3-(4-(5-acetyl-3-(7-(difluoromethyl)-6-(1-methyl-1H-pyrazol-4-yl)-3,4-dihydroquinolin-1(2H)-yl)-4,5,6,7-tetrahydro-1H-pyrazolo[4,3-c]pyridin-1-yl)piperidin-1-yl)-3-oxopropyl)piperidin-4-yl)methoxy)-3-methyl-2-oxo-2,3-dihydro-1H-benzo[d]imidazol-1-yl)piperidine-2,6-dione]"
2,> 500 nM,"CC(=O)N1CCc2c(c(N3CCCc4cc(-c5cnn(C)c5)c(C(F)F)cc43)nn2C2CCN(C(=O)CCC3CCN(CC(=O)Nc4cccc(NC5CCC(=O)NC5=O)c4)CC3)CC2)C1 (stereo not shown) [P-261, 2-(4-(3-(4-(5-acetyl-3-(7-(difluoromethyl)-6-(1-methyl-1H-pyrazol-4-yl)-3,4-dihydroquinolin-1(2H)-yl)-4,5,6,7-tetrahydro-1H-pyrazolo[4,3-c]pyridin-1-yl)piperidin-1-yl)-3-oxopropyl)piperidin-1-yl)-N-(3-((2,6-dioxopiperidin-3-yl)amino)phenyl)acetamide]"
3,560 nM,"CC(=O)N1CCc2c(c(N3CCCc4cc(-c5cnn(C)c5)c(C(F)F)cc43)nn2C2CCN(CCCCN3CCC(Cn4c(=O)n(C5CCC(=O)NC5=O)c5ccccc54)CC3)CC2)C1 (stereo not shown) [P-236, 3-(3-((1-(4-(4-(5-acetyl-3-(7-(difluoromethyl)-6-(1-methyl-1H-pyrazol-4-yl)-3,4-dihydroquinolin-1(2H)-yl)-4,5,6,7-tetrahydro-1H-pyrazolo[4,3-c]pyridin-1-yl)piperidin-1-yl)butyl)piperidin-4-yl)methyl)-2-oxo-2,3-dihydro-1H-benzo[d]imidazol-1-yl) piperidine-2,6-dione]"
4,> 500 nM,"CC(=O)N1CCc2c(c(N3CCCc4cc(-c5cnn(C)c5)c(C(F)F)cc43)nn2C2CCN(C(=O)CCCC3CCN(CC(=O)Nc4cccc(NC5CCC(=O)NC5=O)c4)CC3)CC2)C1 (stereo not shown) [P-262, 2-(4-(4-(4-(5-Acetyl-3-(7-(difluoromethyl)-6-(1-methyl-1H-pyrazol-4-yl)-3,4-dihydroquinolin-1(2H)-yl)-4,5,6,7-tetrahydro-1H-pyrazolo[4,3-c]pyridin-1-yl)piperidin-1-yl)-4-oxobutyl)piperidin-1-yl)-N-(3-((2,6-dioxopiperidin-3-yl)amino)phenyl)acetamide]"
5,> 500 nM,CC(=O)N1CCc2c(c(N3CCCc4cc(-c5cnn(C)c5)c(C(F)F)cc43)nn2C2CCN(C(=O)CCCN3CCC(COc4ccc5c(c4)n(C)c(=O)n5C4CCC(=O)NC4=O)CC3)CC2)C1 (stereo not shown) [P-206]

row,Compound,IC50
1,"CC(=O)N1CCc2c(c(N3CCCc4cc(-c5cnn(C)c5)c(C(F)F)cc43)nn2C2CCN(CCN3CCC(COc4cccc5c4n(C)c(=O)n5C4CCC(=O)NC4=O)CC3)CC2)C1 (stereo not shown) [P-255, 3-(4-((1-(2-(4-(5-Acetyl-3-(7-(difluoromethyl)-6-(1-methyl-1H-pyrazol-4-yl)-3,4-dihydroquinolin-1(2H)-yl)-4,5,6,7-tetrahydro-1H-pyrazolo[4,3-c]pyridin-1-yl)piperidin-1-yl)ethyl)piperidin-4-yl)methoxy)-3-methyl-2-oxo-2,3-dihydro-1H-benzo[d]imidazol-1-yl)piperidine-2,6-dione]",> 500 nM
2,"CC(=O)N1CCc2c(c(N3CCCc4cc(-c5cnn(C)c5)c(C(F)F)cc43)nn2C2CCN(C(=O)CN3CCN(CC#Cc4cccc5c4n(C)c(=O)n5C4CCC(=O)NC4=O)CC3)CC2)C1 (stereo not shown) [P-226, 3-(4-(3-(4-(2-(4-(5-Acetyl-3-(7-(difluoromethyl)-6-(1-methyl-1H-pyrazol-4-yl)-3,4-dihydroquinolin-1(2H)-yl)-4,5,6,7-tetrahydro-1H-pyrazolo[4,3-c]pyridin-1-yl)piperidin-1-yl)-2-oxoethyl)piperazin-1-yl)prop-1-yn-1-yl)-3-methyl-2-oxo-2,3-dihydro-1H-benzo[d]imidazol-1-yl)piperidine-2,6-dione]",398 nM
